From paper PMC10178562, “Synthesis and Characterisation of Fluorescent Novel Pt(II) Cyclometallated Complexes with Anticancer Activity” (International Journal of Molecular Sciences, 2023)

Assays:
U87 Glioblastoma = experiment: MTT cytotoxicity U87; assay type: cell-based; settings: read-out: GI50 Concentration That Inhibits Cell Growth by 50%, 72 h
Protocol: (§1) Cytotoxicity assay studies were performed at Calvary Mater Newcastle Hospital, Waratah, NSW, Australia. In vitro studies were performed according to described methods. Complexes were prepared in DMSO as stock treatment (30 mM) solutions and stored at −20 °C. All cell lines were cultured in a humidified atmosphere with 5% CO2 at 37 °C and maintained in Dulbecco’s modified eagle’s medium (DMEM; Trace Biosciences, Melbourne, Australia) supplemented with 10% foetal bovine serum, sodium bicarbonate (10 mM), penicillin (100 IU mL^−1), streptomycin (100 μg mL^−1), and L-glutamine (4 mM). The non-cancer MCF10A cell line was cultured in DMEM.F12 (1:1) cell culture media (Composition in SI). Cytotoxicity was determined by plating cells in duplicate in 100 μL medium at a density of 2500–4000 cells per well in 96-well plates. After 24 h, when cells were in logarithmic growth, media (100 μL) with or without the test agent were added to each well (day 0). After 72 h of exposure, growth inhibitory effects were evaluated by MTT (3-[4,5-dimethylthiazol-2-yl]-2,5-diphenyltetrazolium bromide) assay, and absorbance was read at 540 nm. […] These calculations were based on the difference between the optical density values on day 0 and those at the end of drug exposure.

HT29 Colon = experiment: MTT cytotoxicity HT29; assay type: cell-based; settings: read-out: GI50 Concentration That Inhibits Cell Growth by 50%, 72 h
Protocol: as §1

A431 Skin = experiment: MTT cytotoxicity A431; assay type: cell-based; settings: read-out: GI50 Concentration That Inhibits Cell Growth by 50%, 72 h
Protocol: as §1

MCF10A Breast (normal) = experiment: MTT cytotoxicity MCF10A (non-cancer); assay type: cell-based; settings: read-out: GI50 Concentration That Inhibits Cell Growth by 50%, 72 h
Protocol: as §1

[1] = Lipophilicity by RP-HPLC (log Kw); assay type: physicochemical; settings: isocratic 70 to 90% solvent B
Protocol: Lipophilicity was calculated using a RP-HPLC method to determine log Kw, whereby a stock solution was injected at different isocratic ratios ranging from 70 to 90% solvent B (organic) at a flow rate of 1 mL min^−1. These experiments were undertaken on an Agilent Technologies 1260 Infinity machine equipped with a Phenomenex Onyx™ Monolithic C18 reverse phase column (100 × 4.6 mm, 130 Å). The mobile phase comprised 0.06% TFA in water (solvent A) and 0.06% TFA in ACN:H2O (90:10, solvent B). The dead zero volume time was determined using potassium iodide as an external dead volume marker, further details are provided in the Supplementary Materials.

calf thymus DNA (ctDNA) [2] = experiment: Direct ctDNA binding by inherent fluorescence (Benesi–Hildebrand); settings: inherent fluorescence method, 10 µM CMC, buffer pH 7.0
Protocol: ctDNA experiments utilising the inherent fluorescence of the complexes were completed in addition to the FID experiments. […] The values of Ka and n for the compounds are listed in Table 4, where R^2 is the linear correlation coefficient for Ka.
The direct fluorescent measurements of DNA binding constants were also obtained with the same fluorimeter using 10 mm path length quartz cells. A 0.065 M stock solution of ctDNA was titrated into a 10 µM solution of CMCs 1–3 in a 40 mM K2HPO4/KH2PO, 10 mM KCl buffer at pH 7.0. The fluorescence was measured from 550 to 750 nm excited at 320 nm inverting 4 times and waiting 3 min between the addition of ctDNA and scan time to allow adequate time for the CMCs to interact with the DNA.

Du145 Prostate = experiment: MTT cytotoxicity Du145; assay type: cell-based; settings: read-out: GI50 Concentration That Inhibits Cell Growth by 50%, 72 h
Protocol: as §1

MCF-7 Breast = experiment: MTT cytotoxicity MCF-7; assay type: cell-based; settings: for GI50: read-out: GI50 Concentration That Inhibits Cell Growth by 50%, MCF-7 Breast, 72 h, MTT
Protocol: as §1

ADDP Cis Res Ovarian = experiment: MTT cytotoxicity ADDP; assay type: cell-based; settings: read-out: GI50 Concentration That Inhibits Cell Growth by 50%, 72 h
Protocol: as §1

BE2-C Neuroblastoma = experiment: MTT cytotoxicity BE2-C; assay type: cell-based; settings: read-out: GI50 Concentration That Inhibits Cell Growth by 50%, 72 h
Protocol: as §1

H460 Lung = experiment: MTT cytotoxicity H460; assay type: cell-based; settings: read-out: GI50 Concentration That Inhibits Cell Growth by 50%, 72 h
Protocol: as §1

A2780 Ovarian = experiment: MTT cytotoxicity A2780; assay type: cell-based; settings: read-out: GI50 Concentration That Inhibits Cell Growth by 50%, 72 h
Protocol: as §1

SJ-G2 Glioblastoma = experiment: MTT cytotoxicity SJ-G2; assay type: cell-based; settings: read-out: GI50 Concentration That Inhibits Cell Growth by 50%, 72 h
Protocol: as §1

MIA Pancreas = experiment: MTT cytotoxicity MIA; assay type: cell-based; settings: read-out: GI50 Concentration That Inhibits Cell Growth by 50%, 72 h
Protocol: as §1

calf thymus DNA (ctDNA) [3] = experiment: Fluorescent intercalator displacement (FID) assay, EtBr-saturated ctDNA; assay type: binding; set-up: Kq (bimolecular quenching constant) / KSV (Stern–Volmer quenching constant): unit not given here; settings: buffer pH 7.0
Protocol: To investigate the potential mechanisms of action of complexes 1–3, fluorescent intercalator displacement (FID) experiments and DNA binding experiments utilizing the innate fluorescence were undertaken. For FID experiments, the concentration of a fluorescent intercalator, in this case ethidium bromide (EtBr), that is displaced by the complex under investigation is determined. In a solution of calf-thymus DNA (ctDNA) where is saturated with EtBr, the change in fluorescence is monitored as the complex is titrated into this solution. Once the decrease in fluorescence has stopped, the concentration of the complex allows us to calculate the stoichiometric point of binding, the change in fluorescence at the point of binding (ΔFsat), the binding coefficient (Ka), bimolecular quenching constant (Kq), Stern–Volmer quenching constant (Ksv), the binding constant for fluorescence (KF), and the molar equivalents of CMC (n) at the point of intersection is the experimental stoichiometry of binding. (1) [ctDNA]Tn−∆Fx/∆Fsat=[CMC] (2) ∆Fx/∆Fsat1/n=fraction of ctDNA−CMC complex (3) 1−∆Fx/∆Fsat1/n=fraction free CMC
The fluorescence at 601 nm for each titration was plotted, and the KF and n could be calculated from the intercept and slope, respectively. (4) F0/F=1+Kqτ0CMC=1+KSV[CMC] where F0 is the fluorescence of the binding site in the absence of quencher (CMC), F is the fluorescence of the site containing the CMC, and t0 is the lifetime of the chromophore in the absence of the quencher (Ɛ476 = 5680 for ethidium-bound DNA).
A plot of F0/F against [CMC] using experimental values allows for the determination of Kq and KSV from the slope. (5) log10F0−F/F=nlog10CMC+log10KF where n is the number of ethidium ligands that are displaced per CMC. […] A plot of log10[(F0 − F)/F)] against log10[CMC] is used to determine KF and n from the intercept and slope, respectively. Experiments were performed in triplicate for each CMC.
Fluorescent intercalator displacement (FID) assays were obtained using the same instrument and by using 10 mm quartz cells. Stock solutions CMCs 1–3 (30 µM) were titrated into a solution of […] ethidium bromide, 150 µM ctDNA in a 40 mM K2HPO4/KH2PO, and 10 mM KCl buffer at pH 7.0. The fluorescence was measured from 550 to 750 nm excited at 480 nm and inverting 4 times and waiting 3 min between the addition of ctDNA and scan time to allow adequate time for the CMCs to interact with the DNA.

[Pt(Pepy)(RRDACH)]+ [Complex 1b]
GI50 (U87 Glioblastoma): 23 ± 2.2 µM
GI50 (HT29 Colon): 41 ± 2.7 µM
GI50 (A431 Skin): 29 ± 2.6 µM
GI50 (MCF10A Breast (normal)): 32 ± 2.7 µM
Lipophilicity × 10^−2 (log Kw) [1]: 1.52 ± 0.063 × 10^−2
Ka (binding constant) (calf thymus DNA (ctDNA) [2]): 1.46 × 10^4
GI50 (Du145 Prostate): 41 ± 0.9 µM
GI50 (MCF-7 Breast): 13 ± 1.7 µM
GI50 (ADDP Cis Res Ovarian): 26 ± 0.6 µM
GI50 (BE2-C Neuroblastoma): 38 ± 4.6 µM
GI50 (H460 Lung): 25 ± 2.9 µM
GI50 (A2780 Ovarian): 31 ± 2.9 µM
GI50 (SJ-G2 Glioblastoma): 20 ± 4.8 µM
GI50 (MIA Pancreas): 41 ± 2 µM
KSV (Stern–Volmer quenching constant) (calf thymus DNA (ctDNA) [3]): 1.957
Ka (binding coefficient) (calf thymus DNA (ctDNA) [3]): 1.58 × 10^4
Kf (binding constant for fluorescence) (calf thymus DNA (ctDNA) [3]): 4.23
Kq (bimolecular quenching constant) (calf thymus DNA (ctDNA) [3]): 0.328
Point of Experimental Stoichiometry of Binding (calf thymus DNA (ctDNA) [3]): 2.65
n (number of ethidium ligands displaced per CMC) (calf thymus DNA (ctDNA) [3]): 0.757
ΔFsat (change in fluorescence at the point of binding) (calf thymus DNA (ctDNA) [3]): 86.38

[Pt(DiBequ)(SSDACH)]+ [Complex 3a]
GI50 (U87 Glioblastoma): 16 ± 0.6 µM
GI50 (HT29 Colon): 16 µM
GI50 (A431 Skin): 14 ± 0.6 µM
GI50 (MCF10A Breast (normal)): 16 ± 0.6 µM
Lipophilicity × 10^−2 (log Kw) [1]: 0.77 ± 0.032 × 10^−2
Ka (binding constant) (calf thymus DNA (ctDNA) [2]): 1.11 × 10^4
GI50 (Du145 Prostate): 23 ± 2.1 µM
SI = GI50 for normal cells/GI50 for cancer cells (MCF10A/MCF-7) (MCF-7 Breast; MCF10A/MCF-7): 1.07
GI50 (MCF-7 Breast): 15 ± 0.5 µM
GI50 (ADDP Cis Res Ovarian): 15 µM
GI50 (BE2-C Neuroblastoma): 9 ± 1.3 µM
GI50 (H460 Lung): 16 ± 0.9 µM
GI50 (A2780 Ovarian): 12 ± 0.9 µM
GI50 (SJ-G2 Glioblastoma): 17 ± 0.6 µM
GI50 (MIA Pancreas): 15 ± 0.7 µM
KSV (Stern–Volmer quenching constant) (calf thymus DNA (ctDNA) [3]): 1.342
Ka (binding coefficient) (calf thymus DNA (ctDNA) [3]): 1.07 × 10^4
Kf (binding constant for fluorescence) (calf thymus DNA (ctDNA) [3]): 3.18
Kq (bimolecular quenching constant) (calf thymus DNA (ctDNA) [3]): 0.237
Point of Experimental Stoichiometry of Binding (calf thymus DNA (ctDNA) [3]): 2.38
n (number of ethidium ligands displaced per CMC) (calf thymus DNA (ctDNA) [3]): 0.579
ΔFsat (change in fluorescence at the point of binding) (calf thymus DNA (ctDNA) [3]): 91.83

[Pt(Bequ)( SSDACH)]+ [Complex 2a]
GI50 (U87 Glioblastoma): 8.6 ± 1.1 µM
GI50 (HT29 Colon): 16 ± 1.3 µM
GI50 (A431 Skin): 12 ± 2.4 µM
GI50 (MCF10A Breast (normal)): 20 ± 1 µM
Lipophilicity × 10^−2 (log Kw) [1]: 2.06 ± 0.097 × 10^−2
Ka (binding constant) (calf thymus DNA (ctDNA) [2]): 1.11 × 10^4
GI50 (Du145 Prostate): 26 ± 2 µM
GI50 (MCF-7 Breast): 5.4 ± 1 µM
GI50 (ADDP Cis Res Ovarian): 14 ± 0.3 µM
GI50 (BE2-C Neuroblastoma): 23 ± 3.5 µM
GI50 (H460 Lung): 11 ± 1.5 µM
GI50 (A2780 Ovarian): 18 ± 2.3 µM
GI50 (SJ-G2 Glioblastoma): 13 ± 2.2 µM
GI50 (MIA Pancreas): 20 ± 3 µM
KSV (Stern–Volmer quenching constant) (calf thymus DNA (ctDNA) [3]): 1.339
Ka (binding coefficient) (calf thymus DNA (ctDNA) [3]): 1.58 × 10^4
Kf (binding constant for fluorescence) (calf thymus DNA (ctDNA) [3]): 3.25
Kq (bimolecular quenching constant) (calf thymus DNA (ctDNA) [3]): 0.241
Point of Experimental Stoichiometry of Binding (calf thymus DNA (ctDNA) [3]): 2.52
n (number of ethidium ligands displaced per CMC) (calf thymus DNA (ctDNA) [3]): 0.592
ΔFsat (change in fluorescence at the point of binding) (calf thymus DNA (ctDNA) [3]): 89.29

[Pt(DiBequ)(RRDACH)]+ [Complex 3b]
GI50 (U87 Glioblastoma): 4.1 ± 0.3 µM
GI50 (HT29 Colon): 16 ± 0.3 µM
GI50 (A431 Skin): 3.9 ± 0.4 µM
GI50 (MCF10A Breast (normal)): 8.5 ± 1.4 µM
Lipophilicity × 10^−2 (log Kw) [1]: 0.4 ± 0.029 × 10^−2
Ka (binding constant) (calf thymus DNA (ctDNA) [2]): 3.68 × 10^4
GI50 (Du145 Prostate): 16 ± 1.5 µM
GI50 (MCF-7 Breast): 4.2 ± 0.3 µM
GI50 (ADDP Cis Res Ovarian): 6.9 ± 0.4 µM
GI50 (BE2-C Neuroblastoma): 33 ± 1.2 µM
GI50 (H460 Lung): 8.2 ± 2.9 µM
GI50 (A2780 Ovarian): 4.5 ± 0.3 µM
GI50 (SJ-G2 Glioblastoma): 10.1 ± 2.6 µM
GI50 (MIA Pancreas): 12.5 ± 2 µM
KSV (Stern–Volmer quenching constant) (calf thymus DNA (ctDNA) [3]): 1.727
Ka (binding coefficient) (calf thymus DNA (ctDNA) [3]): 3.98 × 10^4
Kf (binding constant for fluorescence) (calf thymus DNA (ctDNA) [3]): 4.22
Kq (bimolecular quenching constant) (calf thymus DNA (ctDNA) [3]): 0.297
Point of Experimental Stoichiometry of Binding (calf thymus DNA (ctDNA) [3]): 2.62
n (number of ethidium ligands displaced per CMC) (calf thymus DNA (ctDNA) [3]): 0.757
ΔFsat (change in fluorescence at the point of binding) (calf thymus DNA (ctDNA) [3]): 82.38
